{"source": "ChEMBL document CHEMBL1158953", "about": "“The Structure of Clathrodin, a Novel Alkaloid Isolated from the Caribbean Sea Sponge Agelas clathrodes” (1991)", "key": {"CHO-K1": {"system": "CHO-K1", "assay": "Cytotoxicity against CHOK1 cells", "format": "functional", "details": "Cricetulus griseus, read-out: ED50 (the source's name)"}, "Rana temporaria": {"species": "Rana temporaria", "assay": "Inhibition of cholinergic receptor in frog skeletal muscle at 0.1 uM to 1000 uM"}}, "note": "Active and inactive are the calls of the source. The calls are words filed in the database; no cut-off is given here."}
{"smiles": "Nc1ncc(/C=C/CNC(=O)c2ccc[nH]2)[nH]1", "note": "[CLATHRODIN]", "values": [{"measurement": "EC50", "setting": "CHO-K1", "value": 1.33, "unit": "µg/mL"}, {"measurement": "Activity", "setting": "Rana temporaria", "value": "Active"}]}
